Experimental findings from US5162328A, “N-[3-[2-(1H-imidazol-1-yl)ethoxy]phenyl]-4-(2-thienyl)-2-pyrimidinamine and pharmacologically acceptable salts” (American Cyanamid Company, priority 1991, dated 1992) are described below.

Experiment [1] has as its system immunologically stimulated human basophils. The experiment in a line: Inhibition of histamine release from immunologically stimulated human basophils. The format is cell-based. As to conditions: for IC50: Homo sapiens. From the text:
The bronchospasm of allergic asthma is a consequence of the release of mediators, such as histamine and slow-reacting substances from mast cells. The role of mediator release in the induction of an asthmatic attack has been fully reviewed and documented; see […]. and Austen, K. F., Bronchial Asthma Mechanisms and Therapeutics, E. B. Weiss, Editor, Little, Brown and Company, Boston, 163, (1976); Lichtenstein, L. M., Asthma-Physiology, Immunopharmacology and Treatment, Second International Symposium, L. M. Lichtenstein and K. F. Austen, Editors, Academic Press, New York, 51, (1979); and Bell, S. C., et al., Annular Reports in Medicinal Chemistry, 14, 51, H. J. Hess, Editor, Academic Press, New York, (1979). The novel compounds of this invention have been tested by the procedure of Lichtenstein, L. M. and Osler, A. G., J. Exp. […] Dissolve 140.3 g of sodium chloride, 7.45 g of Trizma-Tris Pre-Set, Reagent Grade, pH 7.6 at 25° C. (Sigma Chemical Co.) in sufficient water to give a final volume of 2 liters. (Sigma chemical Co.) (30 mg/ml) Made to 0.075M and 0.5M respectively, with calcium chloride dihydrate and magnesium chloride hexahydrate. A 10 ml portion of 10× Tris Buffer and 1.0 ml of human albumin are diluted to 100 ml with water. A 10 ml portion of 10× Tris Buffer, 1.0 ml of human albumin, 0.8 ml of calcium stock and 0.2 ml of magnesium stock are diluted to 100 ml with water. Behring Diagnostics (Generally used at 10 μg protein/ml final concentration). Strength 1:100 (w:v) allergenic extract, Hollister-Stier Labs. Generally this is diluted 1:1000 to 1:10,000 (considering the vial as stock). Interdermal solutions or intramuscular preparations for hyposensitization, Hollister-Stier Labs. The final concentrations used are on the order of 1 PNU/ml. Using four 20 ml heparinized tubes, […] of blood are withdrawn from subjects with known histamine release to anti-IgE, ragweed antigen or other specific allergen. These 80 ml of blood are mixed with 20 ml of saline containing 0.6 g of dextrose and 1.2 g of dextran. The blood is allowed to sediment at room temperature in two 50 ml polycarbonate centrifuge tubes until a sharp interface develops between the red cells and plasma (60-90 minutes). The plasma, containing the leukocytes, (top) layer from each tube, is withdrawn by pipet and transferred to 50 ml polycarbonate tubes. The plasma is centrifuged for 8 minutes at 110× G at 4° C. The supernatant is carefully poured off as completely as possible and the cell button is resuspended in 2-3 ml of Tris-A buffer using a siliconized Pasteur pipet. The resuspension is accomplished by drawing the liquid gently in an out of the pipet, with the tip below the liquid until an even suspension of cells is obtained. […]

Experiment [2] deals with passive cutaneous anaphylaxis lesions in the rat. The experiment in a line: Rat Passive Cutaneous Anaphylaxis Assay (PCA). It is filed as in vivo, rat (male Wistar strain). As to conditions: for Lesion Area (Low IgE) / Lesion Area (High IgE): mean ± SD. As for the experimental part: Solutions made by dissolving 0.50 g in 100 ml of normal saline. Mouse monoclonal IgE (ICN Biochemicals) clone SPE-7 directed against DNP is subdivided into 50 ul aliquots and stored at -70° C. DNP-ovalbumin is made by reacting DNP sulfonic acid with ovalbumin dissolved in saline overnight at room temperature. The resulting solution is dialyzed extensively at 4 C to remove unreacted DNPsulfonic acid and stored as 1 mL aliquots of 100 mg/ml at -70° C. Male Wistar strain rats, certified viral free, weighing 250-300 g are obtained from Hilltop Laboratory Animals and housed, in accordance with AALAC standards, on site for at least one week before use. Forty-eight hours before challenge the rats are shaved on the dorsal surfaces and returned to the cages. Twenty-four hours before challenge the rats are given intradermal injections of 0.1 mL, one on each flank, of saline containing IgE at concentrations ranging from 1000 to 250 ng/mL. These injections give a local dose of 100 to 25 ng IgE. The IgE binds to specific receptors on mast cells in the skin. […] To the Evan's blue dye is added sufficient DNP-ovalbumin to make a 1 mg/ml solution. This allergen containing dye is injected intravenously via a tail vein into the rats at 10 ml/Kg. The Evans' blue binds to plasma albumin and remains in the vascular space under conditions of normal capillary permeability. The allergen, which can diffuse into the extravascular space, binds to the IgE on the surface of the cutaneous mast cells and initiates the immediate hypersensitivity response which leads to the release of histamine by intracellular granules of the mast cell. The histamine causes an increase in capillary permeability which allows plasma proteins including the dye tagged albumin to diffuse into the extracellular space resulting in a blue spot in the skin. The size of the lesion is proportional to the amounts of mediators released. This process reaches an optimum in 30 minutes. Thirty minutes after challenge the rats are euthanized by CO2. The skin is reflected from the back and the lesion areas estimated as the product of the largest diameter of the bluespot and the diameter perpendicular to it. A compound which is a mediator release inhibitor will reduce the spot area. The effectiveness of the compounds is determined by Analysis of Variance of the lesion areas grouped by IgE dose and compound. Compounds are considered active at the P<0.05 level. Table II contains the results of the experiments expressed as the areas of the lesions in mm^2. The control lesions for these experiments are also listed. Because more than one compound at a time is tested, some of the control values are repeated in the table. Table III contains the data expressed as a % of the appropriate control.

The mark [3] stands for this setting: 0.5 mg/kg PO 2 hrs, IgE 50 ng/site.
[4] abbreviates: compared with the two compounds of U.S. Pat. No. 4,788,195.

Several values for one entry are separate records, joined by “and”; a condition that tells them apart may be missing. Equal entries are not always repeated.

Usually IC50 stands for the concentration that inhibits the measured activity by half. Lower therefore signals greater potency in that assay. Molecule `Cc1cc(Nc2nccc(-c3ccncc3)n2)ccc1N.Cl.Cl` [Compound 2, 2-methyl-N^4-[4-(4-pyridinyl)-2-pyrimidinyl]-1,4-benzenediamine dihydrochloride, reference compound] registered an IC50 in experiment [1] of 900 nM. Moreover, the “Lesion Area (Low IgE)” value is 135 ± 20 mm^2 and 97 ± 7 mm^2 and 105 ± 12 mm^2 in experiment [2] (0.5 mg/kg PO 2 hrs, IgE 25 ng/site, dihydrochloride); 10 ± 15 mm^2 in experiment [2] (1.0 mg/kg PO 2 hrs, IgE 25 ng/site). Besides, the “Lesion Area (High IgE)” value is 157 ± 15 mm^2 in experiment [2] (setting [3]); 217 ± 35 mm^2 and 362 ± 62 mm^2 in experiment [2] (0.5 mg/kg PO 2 hrs, IgE 100 ng/site, dihydrochloride); 123 ± 16 mm^2 in experiment [2] (1.0 mg/kg PO 2 hrs, IgE 50 ng/site). In addition, the “% CONTROL (lesion area)” value is 113.6% and 74.6% and 81% in experiment [2] (0.5 mg/kg PO @ 2 hrs, dihydrochloride); 57.9% in experiment [2] (1 mg/kg PO @ 2 hrs).
With `CCN(CC)CCOc1ccc(Nc2nccc(-c3ccncc3)n2)cc1.Cl.Cl` [Compound 3, N-[4-[2-(diethylamino)ethoxy]phenyl]-4-(4-pyridinyl)-2-pyrimidinamine dihydrochloride, reference compound], the IC50 in experiment [1] is 200 ± 20 nM. Also, the “Lesion Area (Low IgE)” value in experiment [2] (0.25 mg/kg PO 2 hrs, IgE 33 ng/site) was 108 ± 26 mm^2; in experiment [2] (0.5 mg/kg PO 2 hrs, IgE 33 ng/site), 68 ± 44 mm^2; in experiment [2] (2.5 mg/kg PO 2 hrs, IgE 25 ng/site), 54 ± 38 mm^2. The “Lesion Area (High IgE)” value in experiment [2] (0.25 mg/kg PO 2 hrs, IgE 50 ng/site) turned out to be 215 ± 24 mm^2; in experiment [2] (setting [3]) it was 149 ± 22 mm^2; in experiment [2] (2.5 mg/kg PO 2 hrs, IgE 100 ng/site), 105 ± 47 mm^2. The “% CONTROL (lesion area)” value in experiment [2] (0.25 mg/kg PO @ 2 hrs) turned out to be 45.1%; in experiment [2] (0.5 mg/kg PO @ 2 hrs), 28.6%; in experiment [2] (2.5 mg/kg PO @ 2 hrs), 33.7%.
Regarding `c1cc(Nc2nccc(-c3cccs3)n2)cc(OCCn2ccnc2)c1` [N-[3-[2-(1H-imidazol-1-yl)ethoxy]phenyl]-4-(2-thienyl)-2-pyrimidinamine], the “activity in basophil histamine release assay (in words)” value in experiment [1] (setting [4]) is recorded as “essentially equivalent high activity”. The “activity in rat PCA test (in words)” value in experiment [2] (setting [4]) is recorded as “essentially equivalent high activity”.
